Source: US10414811B2, “Protease-resistant lipidated GLP-1 analogs” (MEDIMMUNE LIMITED, priority 2015, dated 2019)
Read-outs that look alike come from different tables or passages of the source.

Tests used:
Format in all cases: cell-based
[1] = biological target: T1, human glucagon receptor (GCGR) (Homo sapiens, UniProt P47871); assay: cAMP assay, human GCGR cells; conditions: cAMP assay
T1 construct: expressed in transfected cells
Procedure, shortened: (§1)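 Peptide-stimulated cAMP measured by two-step HTRF after a 30 min room-temperature incubation with receptor-expressing cells (hGLP-1R, hGIPR at 1×10^5 cells/ml; hGCGR at 2×10^5 cells/ml). Duplicate dilutions; EC50 from 4-parameter logistic fit of % Delta F.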

[2] = biological target: T2, human glucose-dependent insulinotropic peptide receptor (GIPR) (Homo sapiens, UniProt P48546); assay: cAMP assay, human GIPR cells; conditions: cAMP assay
T2 construct: expressed in transfected cells
T2 sequence (P48546 22-466): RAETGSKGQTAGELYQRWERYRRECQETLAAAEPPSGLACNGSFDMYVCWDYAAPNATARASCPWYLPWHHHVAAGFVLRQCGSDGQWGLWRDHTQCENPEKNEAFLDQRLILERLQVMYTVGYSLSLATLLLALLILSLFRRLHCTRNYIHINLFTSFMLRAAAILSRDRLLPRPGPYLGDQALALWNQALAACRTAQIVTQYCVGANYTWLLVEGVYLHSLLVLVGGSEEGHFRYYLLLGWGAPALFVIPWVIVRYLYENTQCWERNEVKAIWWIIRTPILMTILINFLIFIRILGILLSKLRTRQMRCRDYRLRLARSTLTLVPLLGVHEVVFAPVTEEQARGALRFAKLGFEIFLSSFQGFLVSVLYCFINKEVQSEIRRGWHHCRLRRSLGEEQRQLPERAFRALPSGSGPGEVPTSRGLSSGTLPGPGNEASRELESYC
Procedure, shortened: as §1

[3] = biological target: T3, human GLP-1 receptor (GLP-1R) (Homo sapiens, UniProt P43220); assay: cAMP assay, human GLP-1R cells
T3 construct: expressed in transfected cells
Procedure, shortened: as §1

[4] = Primary assay EC50 Gluc-R (n1), first determination (n1)
[5] = read-out: Primary assay EC50 Gluc-R (n2), second determination (n2)
[6] = Primary assay EC50 GIP-R (n1), first determination (n1)
[7] = read-out: Primary assay EC50 GIP-R (n2), second determination (n2)
[8] = cAMP assay, first determination (n1), read-out: Primary assay EC50 GLP-1R n1
[9] = cAMP assay, second determination (n2), read-out: Primary assay EC50 GLP-1R n2
[10] = mean of n1 and n2, read-out: Mean pM GLP-1R
[11] = first determination (n1), read-out: Primary assay EC50 Gluc-R (n1)
[12] = second determination (n2), read-out: Primary assay EC50 Gluc-R (n2)
[13] = first determination (n1), read-out: Primary assay EC50 GIP-R (n1)
[14] = second determination (n2), read-out: Primary assay EC50 GIP-R (n2)

T3 sequence (P43220 24-463): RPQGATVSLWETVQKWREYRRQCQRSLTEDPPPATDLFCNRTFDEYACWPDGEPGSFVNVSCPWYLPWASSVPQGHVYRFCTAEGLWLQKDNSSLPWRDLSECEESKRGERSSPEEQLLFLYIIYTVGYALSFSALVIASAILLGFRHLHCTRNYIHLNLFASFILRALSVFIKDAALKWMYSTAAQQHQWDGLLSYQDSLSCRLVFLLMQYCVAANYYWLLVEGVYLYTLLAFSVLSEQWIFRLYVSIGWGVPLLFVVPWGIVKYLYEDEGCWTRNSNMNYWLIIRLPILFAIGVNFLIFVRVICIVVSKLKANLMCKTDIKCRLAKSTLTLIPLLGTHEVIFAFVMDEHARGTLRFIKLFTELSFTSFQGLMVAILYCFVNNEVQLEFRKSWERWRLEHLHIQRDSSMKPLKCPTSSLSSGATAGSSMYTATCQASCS
T1 sequence (P47871 26-477): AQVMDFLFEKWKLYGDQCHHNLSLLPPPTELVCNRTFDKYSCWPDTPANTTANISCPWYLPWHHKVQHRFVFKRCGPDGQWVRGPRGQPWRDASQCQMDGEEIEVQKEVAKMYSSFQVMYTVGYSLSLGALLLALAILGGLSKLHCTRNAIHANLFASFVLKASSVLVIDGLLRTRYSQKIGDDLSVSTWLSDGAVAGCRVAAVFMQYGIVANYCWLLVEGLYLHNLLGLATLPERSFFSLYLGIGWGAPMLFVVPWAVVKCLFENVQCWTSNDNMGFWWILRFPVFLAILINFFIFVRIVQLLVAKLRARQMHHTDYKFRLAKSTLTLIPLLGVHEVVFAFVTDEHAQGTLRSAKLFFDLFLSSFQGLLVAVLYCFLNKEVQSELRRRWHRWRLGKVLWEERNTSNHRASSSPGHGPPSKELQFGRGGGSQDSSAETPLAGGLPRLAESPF

| Structure (SMILES) | EC50 [1, 4] | EC50 [1, 5] | EC50 [2, 6] | EC50 [2, 7] | EC50 [3, 8] | EC50 [3, 9] | EC50 [3, 10] | EC50 [1, 11] | EC50 [1, 12] | EC50 [2, 13] | EC50 [2, 14] |
| --- | --- | --- | --- | --- | --- | --- | --- | --- | --- | --- | --- |
| CC[C@H](C)[C@H](NC(=O)[C@](C)(Cc1ccccc1)NC(=O)[C@H](CCC(=O)O)NC(=O)[C@H](CCCCNC(=O)CCCCCNC(=O)CCCCCNC(=O)CCCCCNC(=O)CCCCCCCCCCCOc1ccc(C(=O)O)cc1)NC(=O)[C@H](C)NC(=O)[C@H](C)NC(=O)[C@H](CCC(=O)O)NC(=O)CNC(=O)[C@H](CCC(=O)O)NC(=O)[C@H](CC(C)C)NC(=O)[C@](C)(Cc1ccccc1)NC(=O)[C@H](CO)NC(=O)[C@](C)(CO)NC(=O)[C@@H](NC(=O)[C@H](CC(=O)O)NC(=O)[C@H](CO)NC(=O)[C@@H](NC(=O)[C@](C)(Cc1ccccc1)NC(=O)[C@H](CO)NC(=O)CNC(=O)[C@H](CCC(=O)O)NC(=O)C(C)(C)NC(=O)[C@@H](N)Cc1c[nH]cn1)[C@@H](C)O)C(C)C)C(=O)N[C@@H](C)C(=O)N[C@@](C)(Cc1ccccc1)C(=O)N[C@H](C(=O)N[C@H](C(=O)N[C@@](C)(CCCCN)C(=O)NCC(=O)NCC(N)=O)C(C)C)C(C)C [compound 142] | ≥ 26 nM | ≥ 26 nM | ≥ 26 nM | ≥ 26 nM | 12 pM | 7.9 pM | 10.1 pM | – | – | – | – |
| CC[C@H](C)[C@H](NC(=O)[C@](C)(Cc1ccccc1)NC(=O)[C@H](CCC(=O)O)NC(=O)[C@H](CCCCNC(=O)COCCOCCNC(=O)COCCOCCNC(=O)CCCCCCCCCCCOc1ccc(C(=O)O)cc1)NC(=O)[C@H](C)NC(=O)[C@H](C)NC(=O)[C@H](CCC(=O)O)NC(=O)CNC(=O)[C@H](CCC(=O)O)NC(=O)[C@H](CC(C)C)NC(=O)[C@](C)(Cc1ccccc1)NC(=O)[C@H](CO)NC(=O)[C@](C)(CO)NC(=O)[C@@H](NC(=O)[C@H](CC(=O)O)NC(=O)[C@H](CO)NC(=O)[C@@H](NC(=O)[C@](C)(Cc1ccccc1)NC(=O)[C@H](CO)NC(=O)CNC(=O)[C@H](CCC(=O)O)NC(=O)C(C)(C)NC(=O)[C@@H](N)Cc1c[nH]cn1)[C@@H](C)O)C(C)C)C(=O)N[C@@H](C)C(=O)N[C@@](C)(Cc1ccccc1)C(=O)N[C@H](C(=O)N[C@H](C(=O)N[C@@](C)(CCCCN)C(=O)NCC(=O)NCC(N)=O)C(C)C)C(C)C [compound 144] | ≥ 26 nM | ≥ 26 nM | ≥ 26 nM | ≥ 26 nM | 16 pM | 9.6 pM | 12.6 pM | – | – | – | – |
| CC[C@H](C)[C@H](NC(=O)[C@](C)(Cc1ccccc1)NC(=O)[C@H](CCC(=O)O)NC(=O)[C@H](CCCCNC(=O)COCCOCCNC(=O)COCCOCCNC(=O)COCCOCCNC(=O)CCCCCCCCCCCOc1ccc(C(=O)O)cc1)NC(=O)[C@H](C)NC(=O)[C@H](C)NC(=O)[C@H](CCC(=O)O)NC(=O)CNC(=O)[C@H](CCC(=O)O)NC(=O)[C@H](CC(C)C)NC(=O)[C@](C)(Cc1ccccc1)NC(=O)[C@H](CO)NC(=O)[C@](C)(CO)NC(=O)[C@@H](NC(=O)[C@H](CC(=O)O)NC(=O)[C@H](CO)NC(=O)[C@@H](NC(=O)[C@](C)(Cc1ccccc1)NC(=O)[C@H](CO)NC(=O)CNC(=O)[C@H](CCC(=O)O)NC(=O)C(C)(C)NC(=O)[C@@H](N)Cc1c[nH]cn1)[C@@H](C)O)C(C)C)C(=O)N[C@@H](C)C(=O)N[C@@](C)(Cc1ccccc1)C(=O)N[C@H](C(=O)N[C@H](C(=O)N[C@@](C)(CCCCN)C(=O)NCC(=O)NCC(N)=O)C(C)C)C(C)C [compound 145] | ≥ 25 nM | ≥ 25 nM | ≥ 25 nM | ≥ 25 nM | 27 pM | 15 pM | 21 pM | – | – | – | – |
| CCCCCCCCCCCCCCCCCC(=O)N[C@@H](CCC(=O)NCCCC[C@H](NC(=O)[C@H](C)NC(=O)[C@H](C)NC(=O)[C@H](CCC(=O)O)NC(=O)CNC(=O)[C@H](CCC(=O)O)NC(=O)[C@H](CC(C)C)NC(=O)[C@](C)(Cc1ccccc1)NC(=O)[C@H](CO)NC(=O)[C@](C)(CO)NC(=O)[C@@H](NC(=O)[C@H](CC(=O)O)NC(=O)[C@H](CO)NC(=O)[C@@H](NC(=O)[C@](C)(Cc1ccccc1)NC(=O)[C@H](CO)NC(=O)CNC(=O)[C@H](CCC(=O)O)NC(=O)C(C)(C)NC(=O)[C@@H](N)Cc1c[nH]cn1)[C@@H](C)O)C(C)C)C(=O)N[C@@H](CCC(=O)O)C(=O)N[C@@](C)(Cc1ccccc1)C(=O)N[C@H](C(=O)N[C@@H](C)C(=O)N[C@@](C)(Cc1ccccc1)C(=O)N[C@H](C(=O)N[C@H](C(=O)N[C@@](C)(CCCCN)C(=O)NCC(=O)NCC(N)=O)C(C)C)C(C)C)[C@@H](C)CC)C(=O)O [compound 146] | – | – | – | – | 96 pM | 42 pM | 69 pM | ≥ 28 nM | ≥ 28 nM | ≥ 28 nM | ≥ 28 nM |
| CCCCCCCCCCCCCCCCCC(=O)N[C@@H](CCC(=O)N[C@@H](CCC(=O)NCCCC[C@H](NC(=O)[C@H](C)NC(=O)[C@H](C)NC(=O)[C@H](CCC(=O)O)NC(=O)CNC(=O)[C@H](CCC(=O)O)NC(=O)[C@H](CC(C)C)NC(=O)[C@](C)(Cc1ccccc1)NC(=O)[C@H](CO)NC(=O)[C@](C)(CO)NC(=O)[C@@H](NC(=O)[C@H](CC(=O)O)NC(=O)[C@H](CO)NC(=O)[C@@H](NC(=O)[C@](C)(Cc1ccccc1)NC(=O)[C@H](CO)NC(=O)CNC(=O)[C@H](CCC(=O)O)NC(=O)C(C)(C)NC(=O)[C@@H](N)Cc1c[nH]cn1)[C@@H](C)O)C(C)C)C(=O)N[C@@H](CCC(=O)O)C(=O)N[C@@](C)(Cc1ccccc1)C(=O)N[C@H](C(=O)N[C@@H](C)C(=O)N[C@@](C)(Cc1ccccc1)C(=O)N[C@H](C(=O)N[C@H](C(=O)N[C@@](C)(CCCCN)C(=O)NCC(=O)NCC(N)=O)C(C)C)C(C)C)[C@@H](C)CC)C(=O)O)C(=O)O [compound 147] | – | – | – | – | 32 pM | 14 pM | 23.2 pM | ≥ 27 nM | ≥ 27 nM | ≥ 27 nM | ≥ 27 nM |
| CCCCCCCCCCCCCCCCCC(=O)N[C@@H](CCC(=O)N[C@@H](CCC(=O)N[C@@H](CCC(=O)NCCCC[C@H](NC(=O)[C@H](C)NC(=O)[C@H](C)NC(=O)[C@H](CCC(=O)O)NC(=O)CNC(=O)[C@H](CCC(=O)O)NC(=O)[C@H](CC(C)C)NC(=O)[C@](C)(Cc1ccccc1)NC(=O)[C@H](CO)NC(=O)[C@](C)(CO)NC(=O)[C@@H](NC(=O)[C@H](CC(=O)O)NC(=O)[C@H](CO)NC(=O)[C@@H](NC(=O)[C@](C)(Cc1ccccc1)NC(=O)[C@H](CO)NC(=O)CNC(=O)[C@H](CCC(=O)O)NC(=O)C(C)(C)NC(=O)[C@@H](N)Cc1c[nH]cn1)[C@@H](C)O)C(C)C)C(=O)N[C@@H](CCC(=O)O)C(=O)N[C@@](C)(Cc1ccccc1)C(=O)N[C@H](C(=O)N[C@@H](C)C(=O)N[C@@](C)(Cc1ccccc1)C(=O)N[C@H](C(=O)N[C@H](C(=O)N[C@@](C)(CCCCN)C(=O)NCC(=O)NCC(N)=O)C(C)C)C(C)C)[C@@H](C)CC)C(=O)O)C(=O)O)C(=O)O [compound 148] | – | – | – | – | 16 pM | 8.7 pM | 12.1 pM | ≥ 26 nM | ≥ 26 nM | ≥ 26 nM | ≥ 26 nM |
| CCCCCCCCCCCCCCCCCC(=O)NCCCCCC(=O)NCCCC[C@H](NC(=O)[C@H](C)NC(=O)[C@H](C)NC(=O)[C@H](CCC(=O)O)NC(=O)CNC(=O)[C@H](CCC(=O)O)NC(=O)[C@H](CC(C)C)NC(=O)[C@](C)(Cc1ccccc1)NC(=O)[C@H](CO)NC(=O)[C@](C)(CO)NC(=O)[C@@H](NC(=O)[C@H](CC(=O)O)NC(=O)[C@H](CO)NC(=O)[C@@H](NC(=O)[C@](C)(Cc1ccccc1)NC(=O)[C@H](CO)NC(=O)CNC(=O)[C@H](CCC(=O)O)NC(=O)C(C)(C)NC(=O)[C@@H](N)Cc1c[nH]cn1)[C@@H](C)O)C(C)C)C(=O)N[C@@H](CCC(=O)O)C(=O)N[C@@](C)(Cc1ccccc1)C(=O)N[C@H](C(=O)N[C@@H](C)C(=O)N[C@@](C)(Cc1ccccc1)C(=O)N[C@H](C(=O)N[C@H](C(=O)N[C@@](C)(CCCCN)C(=O)NCC(=O)NCC(N)=O)C(C)C)C(C)C)[C@@H](C)CC [compound 149] | – | – | – | – | 81 pM | 51 pM | 66.2 pM | ≥ 28 nM | ≥ 28 nM | ≥ 28 nM | ≥ 28 nM |
